Patent US8012975B2, “Antitumoral analogs of ET-743” (Pharma Mar, S.A., priority 2000, dated 2011)
Read-outs that look alike come from different tables or passages of the source.

Columns and labels:
P-388 [1] = test system: P-388
DU-145 [2] = test system: DU-145
HT-29 [3] = test system: HT-29
MEL-28 [4] = test system: MEL-28
A-549 [5] = test system: A-549
A-549 [6] = assay: Cytotoxic activity IC50, A-549; details: Homo sapiens
MEL-28 [7] = assay: Cytotoxic activity IC50, MEL-28; details: Homo sapiens
P-388 [8] = assay: Cytotoxic activity IC50, P-388; details: Mus musculus, P388, read-out: CYTOTOXIC ACTIVITIY IC50 (μM) P-388
DU-145 [9] = assay: Cytotoxic activity IC50, DU-145; details: Homo sapiens
HT-29 [10] = assay: Cytotoxic activity IC50, HT-29; details: Homo sapiens
[11] = A549, read-out: CYTOTOXIC ACTIVITIY IC50 (μM) A-549, A-549
[12] = SK-MEL-28, read-out: CYTOTOXIC ACTIVITIY IC50 (μM) MEL-28, MEL-28
[13] = DU-145, read-out: CYTOTOXIC ACTIVITIY IC50 (μM) DU-145, DU-145
[14] = HT-29, read-out: CYTOTOXIC ACTIVITIY IC50 (μM) HT-29, HT-29

With `COc1c(C)cc2c(c1O)[C@@H]1C3Cc4c(OC(C)=O)c(C)c5c(c4[C@H](COC(=O)CCc4ccccc4)N3[C@@H](C#N)[C@H](C2)N1C)OCO5` (stereo partly shown) the IC50 (P-388 [1]) was 0.1 nM, the IC50 (DU-145 [2]) was 0.1 nM and the IC50 (HT-29 [3]) was 0.1 nM. The IC50 (MEL-28 [4]) was 0.1 nM and the IC50 (A-549 [5]) was 0.1 nM.
`COc1c(C)cc2c(c1O)[C@@H]1C3Cc4c(OC(C)=O)c(C)c5c(c4[C@H](CNC(=O)[C@H](C)NC(=O)CCc4ccccc4)N3[C@@H](O)[C@H](C2)N1C)OCO5` (stereo partly shown) [drawing 135] was tested, and the IC50 (P-388 [1]) was 0.1 nM, the IC50 (DU-145 [2]) was 0.1 nM and the IC50 (HT-29 [3]) was 0.1 nM. The IC50 (MEL-28 [4]) was 0.1 nM and the IC50 (A-549 [5]) was 0.1 nM.
Work on `CCC(=O)NC[C@H]1c2c(c(OC(C)=O)c(C)c3c2OCO3)CC2[C@H]3c4c(cc(C)c(OC)c4O)C[C@@H]([C@H](O)N21)N3C` (stereo partly shown) [drawing 125] yielded an IC50 (P-388 [1]) of 0.1 nM, an IC50 (DU-145 [2]) of 0.1 nM and an IC50 (HT-29 [3]) of 0.1 nM. It also gave an IC50 (MEL-28 [4]) of 0.1 nM and an IC50 (A-549 [5]) of 0.1 nM.
Compound `COc1c(C)cc2c(c1O)[C@@H]1C3Cc4c(OC(C)=O)c(C)c5c(c4[C@H](CNC(=O)CCc4ccccc4)N3[C@@H](C#N)[C@H](C2)N1C)OCO5` (stereo partly shown) has an IC50 (P-388 [1]) of 0.1 nM, an IC50 (DU-145 [2]) of 0.1 nM and an IC50 (HT-29 [3]) of 0.1 nM. It also gave an IC50 (MEL-28 [4]) of 0.1 nM and an IC50 (A-549 [5]) of 0.1 nM.
`COc1c(C)cc2c(c1O)[C@@H]1C3Cc4c(OC(C)=O)c(C)c5c(c4[C@H](COC(=O)/C=C/c4cccc(C(F)(F)F)c4)N3[C@@H](O)[C@H](C2)N1C)OCO5` (stereo partly shown) [drawing 157] was tested, and the IC50 (P-388 [1]) was 0.1 nM, the IC50 (DU-145 [2]) was 0.1 nM and the IC50 (HT-29 [3]) was 0.1 nM. For the same compound, the IC50 (MEL-28 [4]) was 0.1 nM and the IC50 (A-549 [5]) was 0.1 nM.
`CCCC(=O)NC[C@H]1c2c(c(OC(C)=O)c(C)c3c2OCO3)CC2[C@H]3c4c(cc(C)c(OC)c4O)C[C@@H]([C@H](O)N21)N3C` (stereo partly shown) [drawing 114] gave an IC50 (A-549 [6]; [11]) of 0.0008 µM, an IC50 (DU-145 [2]) of 0.1 nM and an IC50 (HT-29 [3]) of 0.1 nM. It also gave an IC50 (MEL-28 [7]; [12]) of 0.0008 µM and an IC50 (P-388 [8]) of 0.0008 µM.
Work on `CCCC(=O)OC[C@H]1c2c(c(OC(C)=O)c(C)c3c2OCO3)CC2[C@H]3c4c(cc(C)c(OC)c4OCOC)C[C@@H]([C@H](C#N)N21)N3C` (stereo partly shown) [drawing 152] yielded an IC50 (P-388 [1]) of 0.1 nM, an IC50 (DU-145 [2]; human) of 0.8 nM and an IC50 (HT-29 [3]; human) of 0.8 nM. It also gave an IC50 (MEL-28 [4]; human) of 0.8 nM and an IC50 (A-549 [5]; human) of 0.8 nM.
With `CCC(=O)N[C@@H](C)C(=O)NC[C@H]1c2c(c(OC(C)=O)c(C)c3c2OCO3)CC2[C@H]3c4c(cc(C)c(OC)c4O)C[C@@H]([C@H](O)N21)N3C` (stereo partly shown) [drawing 138] the IC50 (P-388 [1]) was 0.1 nM, the IC50 (DU-145 [2]) was 0.1 nM and the IC50 (HT-29 [3]) was 0.1 nM. It also gave an IC50 (MEL-28 [4]) of 0.1 nM and an IC50 (A-549 [5]) of 0.1 nM.
`CCCCCC(=O)NC[C@H]1c2c(c(OC(C)=O)c(C)c3c2OCO3)CC2[C@H]3c4c(cc(C)c(OC)c4O)C[C@@H]([C@H](C#N)N21)N3C` (stereo partly shown) [drawing 126] gave an IC50 (P-388 [1]) of 0.1 nM.
`C/C=C/C(=O)NC[C@H]1c2c(c(OC(C)=O)c(C)c3c2OCO3)CC2[C@H]3c4c(cc(C)c(OC)c4O)C[C@@H]([C@H](O)N21)N3C` (stereo partly shown) showed an IC50 (P-388 [1]) of 0.1 nM, an IC50 (DU-145 [9]; [13]) of 0.0008 µM and an IC50 (A-549 [6]; [11]) of 0.0008 µM. It also gave an IC50 (HT-29 [3]) of 0.1 nM and an IC50 (MEL-28 [4]) of 0.1 nM.
Work on `CCCC(=O)OC[C@H]1c2c(c(OC(C)=O)c(C)c3c2OCO3)CC2[C@H]3c4c(cc(C)c(OC)c4OCOC)C[C@@H]([C@H](C#N)N21)N3C` (stereo partly shown) [drawing 148] yielded an IC50 (DU-145 [2]; human) of 100 nM, an IC50 (HT-29 [3]; human) of 100 nM and an IC50 (MEL-28 [4]; human) of 100 nM. The IC50 (A-549 [5]; human) was 100 nM and the IC50 (P-388 [8]) was 0.1 µM.
With `COc1c(C)cc2c(c1O)[C@@H]1C3Cc4c(OC(=O)C(F)(F)C(F)(F)C(F)(F)F)c(C)c5c(c4[C@H](CNC(=O)CCc4ccccc4)N3[C@@H](C#N)[C@H](C2)N1C)OCO5` (stereo partly shown) the IC50 (DU-145 [9]; DU-145, read-out: CYTOTOXIC ACTIVITIY IC50 (μM) DU-145) was 0.006 µM, the IC50 (A-549 [6]; A549, read-out: CYTOTOXIC ACTIVITIY IC50 (μM) A-549) was 0.006 µM and the IC50 (HT-29 [10]; HT-29, read-out: CYTOTOXIC ACTIVITIY IC50 (μM) HT-29) was 0.006 µM. For the same compound, the IC50 (MEL-28 [7]; SK-MEL-28, read-out: CYTOTOXIC ACTIVITIY IC50 (μM) MEL-28) was 0.006 µM and the IC50 (P-388 [8]) was 0.006 µM.
Compound `COCOc1c(OC)c(C)cc2c1[C@@H]1C3Cc4c(OC(=O)CCCl)c(C)c5c(c4[C@H](CNC(=O)CCc4ccccc4)N3[C@@H](C#N)[C@H](C2)N1C)OCO5` (stereo partly shown) has an IC50 (DU-145 [9]; [13]) of 0.05 µM, an IC50 (A-549 [6]; [11]) of 0.05 µM and an IC50 (HT-29 [10]; [14]) of 0.05 µM. The IC50 (MEL-28 [7]; [12]) was 0.05 µM and the IC50 (P-388 [8]) was 0.05 µM.
`CCCC(=O)N[C@@H](C)C(=O)NC[C@H]1c2c(c(OC(C)=O)c(C)c3c2OCO3)CC2[C@H]3c4c(cc(C)c(OC)c4O)C[C@@H]([C@H](O)N21)N3C` (stereo partly shown) showed an IC50 (DU-145 [9]; [13]) of 0.001 µM, an IC50 (A-549 [6]; [11]) of 0.001 µM and an IC50 (HT-29 [10]; [14]) of 0.001 µM. For the same compound, the IC50 (MEL-28 [7]; [12]) was 0.001 µM and the IC50 (P-388 [8]) was 0.001 µM.
Work on `COc1c(C)cc2c(c1O)[C@@H]1C3Cc4c(OC(=O)CCCl)c(C)c5c(c4[C@H](CNC(=O)CCc4ccccc4)N3[C@@H](C#N)[C@H](C2)N1C)OCO5` (stereo partly shown) yielded an IC50 (DU-145 [9]; [13]) of 0.01 µM, an IC50 (A-549 [6]; [11]) of 0.01 µM and an IC50 (HT-29 [10]; [14]) of 0.01 µM. For the same compound, the IC50 (MEL-28 [7]; [12]) was 0.01 µM and the IC50 (P-388 [8]) was 0.01 µM.
With `COc1c(C)cc2c(c1O)[C@@H]1C3Cc4c(OC(C)=O)c(C)c5c(c4[C@H](COC(=O)/C=C/c4cccc(C(F)(F)F)c4)N3[C@@H](C#N)[C@H](C2)N1C)OCO5` (stereo partly shown) the IC50 (DU-145 [9]; [13]) was 0.001 µM, the IC50 (A-549 [6]; [11]) was 0.001 µM and the IC50 (HT-29 [10]; [14]) was 0.001 µM. It also gave an IC50 (MEL-28 [7]; [12]) of 0.001 µM and an IC50 (P-388 [8]) of 0.001 µM.
